Measured values taken from the Deep4Chem optical property database.
Values belong to the compound of their own block, whether it stands above or below them.

Experiment: solvent given as SMILES

SMILES: CC1(C)c2ccccc2N(c2ccc3c(c2)C2(c4cc(N5c6ccccc6C(C)(C)c6ccccc65)ccc4-3)c3ccccc3S(=O)(=O)c3ccccc32)c2ccccc21
- absorption maximum (in Cc1ccccc1): 364 nm

SMILES: C1=CN2C[n+]3ccc4ccccc4c3N=C2c2ccccc21
- absorption maximum (in CO): 453 nm

SMILES: Oc1ccc2ccccc2c1/C=N/c1ccccc1/N=C/c1c(O)ccc2ccccc12
- absorption maximum (in CC#N): 429 nm

SMILES: CCCCCCCCC1(CCCCCCCC)c2cc(C#CC#Cc3ccc(N(c4ccccc4)c4ccccc4)cc3)ccc2-c2ccc(C=O)cc21
- absorption maximum (in C1CCOC1): 377 nm
- absorption maximum (in C1COCCO1): 383 nm
- absorption maximum (in CC#N): 375 nm
- absorption maximum (in CC(C)=O): 389 nm
- absorption maximum (in CCCCCC): 378 nm
- absorption maximum (in CCOC(C)=O): 381 nm
- absorption maximum (in CN(C)C=O): 382 nm
- absorption maximum (in CS(C)=O): 382 nm
- absorption maximum (in Cc1ccccc1): 387 nm
- absorption maximum (in ClC(Cl)Cl): 375 nm
- absorption maximum (in ClCCl): 365 nm

SMILES: CN(C)c1ccc(-c2nc(-c3ccccc3)n3ccccc23)cc1
- absorption maximum (in ClC(Cl)Cl): 314 nm

SMILES: CC(C)[Si](C#Cc1c2ccc(C(C)(C)C)cc2c(C#Cc2c3ccc(C(C)(C)C)cc3c(C#C[Si](C(C)C)(C(C)C)C(C)C)c3ccc(C(C)(C)C)cc23)c2ccc(C(C)(C)C)cc12)(C(C)C)C(C)C
- absorption maximum (in Cc1ccccc1): 523 nm

SMILES: CCC1(CC)c2cc(/C=C/c3ccc(N(c4ccccc4)c4ccccc4)cc3)ccc2-c2ccc(/C=C/c3ccc(N(c4ccccc4)c4ccccc4)cc3)cc21
- absorption maximum (in Cc1ccccc1): 412 nm

SMILES: c1ccc(C(=C(c2ccccc2)c2ccc(-c3nc4c(-c5ccc(C(=C(c6ccccc6)c6ccccc6)c6ccccc6)cc5)sc(-c5ccc(C(=C(c6ccccc6)c6ccccc6)c6ccccc6)cc5)c4nc3-c3ccc(C(=C(c4ccccc4)c4ccccc4)c4ccccc4)cc3)cc2)c2ccccc2)cc1
- absorption maximum (in Cc1ccccc1): 538 nm
- absorption maximum (in ClCCl): 520 nm

SMILES: Oc1ccccc1-c1nc2c3ccccc3c3ccccc3c2o1
- absorption maximum (in Cc1ccccc1): 364 nm

SMILES: CCN(CC)c1ccc2cc3c(cc2c1)C1(c2ccccc2Oc2ccccc21)c1cc2cc(N(CC)CC)ccc2cc1C3=O
- absorption maximum (in CC#N): 452 nm

SMILES: CCN(CC)c1ccc2cc(/C=C/C3=CC(/C=C/c4cc5ccc(N(CC)CC)cc5oc4=O)=[O+][B-](F)(F)O3)c(=O)oc2c1
- absorption maximum (in CC#N): 630 nm
- absorption maximum (in CC(C)=O): 620 nm
- absorption maximum (in CCOC(C)=O): 604 nm
- absorption maximum (in CN(C)C=O): 641 nm
- absorption maximum (in CS(C)=O): 652 nm
- absorption maximum (in Cc1ccccc1): 598 nm
- absorption maximum (in ClC(Cl)Cl): 615 nm
- absorption maximum (in ClCCl): 625 nm

SMILES: CC1(C)c2ccccc2N(c2ccc(C(=C(C#N)C#N)c3ccc(N4c5ccccc5C(C)(C)c5ccccc54)cc3)cc2)c2ccccc21
- absorption maximum (in Cc1ccccc1): 436 nm

SMILES: CC1(CCCCC(=O)NCCCCCCO)C(/C=C/C=C/C=C2/N(CCCS(=O)(=O)[O-])c3ccc(S(=O)(=O)[O-])cc3C2(C)C)=[N+](CCCS(=O)(=O)[O-])c2ccc(S(=O)(=O)[O-])cc21 (stereo not drawn)
- absorption maximum (in O): 651 nm

SMILES: c1cc2ccc3ccc(OP4(Oc5ccc6ccc7cccc8ccc5c6c78)=NP(Oc5ccc6ccc7cccc8ccc5c6c78)(Oc5ccc6ccc7cccc8ccc5c6c78)=NP(Oc5ccc6ccc7cccc8ccc5c6c78)(Oc5ccc6ccc7cccc8ccc5c6c78)=N4)c4ccc(c1)c2c34
- absorption maximum (in ClCCl): 343 nm

SMILES: COc1ccc(-c2cc3c(ccc4sc(/C=C/c5cccs5)cc43)s2)cc1
- absorption maximum (in ClCCl): 376 nm

SMILES: F[B-]1(F)n2ccnc2-c2cccc[n+]21
- absorption maximum (in C1CCCCC1): 298 nm
- absorption maximum (in C1CCOC1): 298 nm
- absorption maximum (in C1COCCO1): 297 nm
- absorption maximum (in CC#N): 295 nm
- absorption maximum (in CCCCCC): 297 nm
- absorption maximum (in CO): 293 nm
- absorption maximum (in ClC(Cl)Cl): 300 nm

SMILES: CCN(CC)c1ccc2cc(/C=C/C(O)=C3\CC/C(=C\c4cc5ccc(N(CC)CC)cc5oc4=O)C3=O)c(=O)oc2c1
- absorption maximum (in C1COCCO1): 513 nm
- absorption maximum (in CC#N): 532 nm
- absorption maximum (in CC(C)=O): 526 nm
- absorption maximum (in CCOC(C)=O): 516 nm
- absorption maximum (in CN(C)C=O): 546 nm
- absorption maximum (in CS(C)=O): 556 nm
- absorption maximum (in Cc1ccccc1): 511 nm
- absorption maximum (in ClC(Cl)Cl): 525 nm

SMILES: CCCCCCCCCCCCC(CCCCCCCCCC)Cn1c2cc(/C=C/C=C(C#N)C#N)c3cccc4c5cccc6c(/C=C/C=C(C#N)C#N)cc1c(c65)c2c34 (stereo not drawn)
- absorption maximum (in C1CCCCC1): 638 nm
- absorption maximum (in CC#N): 599 nm
- absorption maximum (in Cc1ccccc1): 597 nm
- absorption maximum (in ClCCl): 611 nm

SMILES: Cc1cc(C)c(C2=C3C=C(c4ccccc4)C(c4ccccc4)=[N+]3[B-](F)(F)n3c2cc(-c2ccccc2)c3-c2ccccc2)c(C)c1
- absorption maximum (in C1CCCCC1): 590 nm
- absorption maximum (in C1CCOC1): 587 nm
- absorption maximum (in CC#N): 578 nm
- absorption maximum (in Cc1ccccc1): 592 nm
- absorption maximum (in ClCCl): 585 nm

More lines, now with the values ahead:

- absorption maximum (in C1CCOC1): 431 nm
- absorption maximum (in CC#N): 431 nm
- absorption maximum (in ClC(Cl)Cl): 436 nm
- absorption maximum (in ClCCl): 431 nm
SMILES: COc1cc(/C=C/c2nc3ccccc3o2)c(OC)cc1/C=C/c1nc(C)nc(/C=C/c2cc(OC)c(/C=C/c3nc4ccccc4o3)cc2OC)n1

- absorption maximum (in ClCCl): 392 nm
SMILES: COC(=O)c1[nH]c(-c2ccccc2)c2nnc3ccc(OC)cc3c12

- absorption maximum (in ClCCl): 626 nm
SMILES: C1=C2C3=C(C4=[N+]2[B-]2(Oc5ccccc54)Oc4ccccc4-c4c5c(c1n42)C1CCC5CC1)C1CCC3CC1 (stereo not drawn)

- absorption maximum (in c1ccccc1): 412 nm
SMILES: CCOC(=O)c1sc2nc(C)c(CC)c(C#N)c2c1N

- absorption maximum (in C1COCCO1): 423 nm
SMILES: COC(=O)c1ccc(/C=C2\C=C(c3ccc(OC)c(OC)c3)OC2=O)cc1

- absorption maximum (in C1CCCCC1): 355 nm
SMILES: C=CB1C=Cc2ccc3ccccc3c2N1

- absorption maximum (in ClCCl): 389 nm
SMILES: FC(F)(F)c1ccccc1B1c2ccccc2N(c2ccccc2)c2ccccc21

- absorption maximum (in O): 405 nm
SMILES: CCOC(=O)CCCCCn1c2ccccc2c(=O)c2cc(N)ccc21

- absorption maximum (in CS(C)=O): 405 nm
- absorption maximum (in ClC(Cl)Cl): 393 nm
SMILES: CCCCCCn1c2ccccc2c2cc(/C=C/c3cc(=O)oc4cc(C)ccc34)ccc21

- absorption maximum (in CO): 433 nm
SMILES: ClC1=CN2C[n+]3cc(Cl)ccc3N=C2C=C1

- absorption maximum (in CC#N): 368 nm
SMILES: COc1ccc(/C=C/c2nc3c4ccccc4c4ccccc4c3o2)cc1

- absorption maximum (in CS(C)=O): 358 nm
SMILES: COc1cc(-c2nc3sc4ccccc4c3s2)cc(OC)c1OC

- absorption maximum (in CS(C)=O): 349 nm
SMILES: Cc1ccc(-c2nc3sc4ccccc4c3s2)cc1

- absorption maximum (in ClCCl): 727 nm
SMILES: CCc1ccc(C2=[N+]3C(=Cc4c5ccc(OC)cc5c(-c5ccc(CC)s5)n4[B-]3(F)F)c3ccc(OC)cc32)s1

- absorption maximum (in ClCCl): 314 nm
SMILES: COc1cc2c(cc1OC)C1=C[C@H](c3ccccc3)C3(C(C(=O)O[C@@H]4C[C@H]5CC[C@@H]4C5)=C(C(=O)O[C@H]4C[C@@H]5CC[C@H]4C5)N1CC2)c1ccccc1-c1ccccc13

- absorption maximum (in C1CCOC1): 367 nm
SMILES: c1ccc2c(c1)-c1ccccc1C21c2ccccc2-c2oc3c(c21)C1(c2ccccc2-c2ccccc21)c1ccccc1-3

- absorption maximum (in O): 458 nm
SMILES: CC[n+]1c(-c2ccccc2)c2cc(N)ccc2c2ccc(NC(N)=O)cc21

- absorption maximum (in ClCCl): 537 nm
SMILES: COC(=O)/C=C/C1=CC2=C(c3c(C)cc(C)cc3C)c3cccn3[B-](F)(F)[N+]2=C1

- absorption maximum (in ClCCl): 390 nm
SMILES: Cc1c(C(=O)c2c(F)cc(F)cc2F)c2ccc3cccc4c5cccc6ccc1c(c65)c2c34

- absorption maximum (in ClCCl): 368 nm
SMILES: CC(=O)c1c(N[C@@H](Cc2ccc(O)cc2)C(=O)O)c2ccc(N(C)C)cc2oc1=O

- absorption maximum (in CC#N): 365 nm
SMILES: c1ccc(-c2nc(-c3ccc(-c4cccs4)s3)[nH]c2-c2ccccc2)cc1

- absorption maximum (in CC#N): 377 nm
SMILES: COc1ccc(-c2csc(/C(C#N)=C/c3ccc(Cl)cc3Cl)n2)cc1
